Values of other authors as cited in US20210137108A1, “REDUCED INHALATION HAZARD OF QUATERNARY AMMONIUM COMPOUNDS-PH DRIVEN PHYSIOLOGICAL RESPONSE” (priority 2016, published 2021).
Where two headings read alike, the source gives them in different places.

Assays:
rats = test system: rats; parameters: key: L is lethal dose; S indicates survival
[1] = test system: lung biomarkers, Clara cells, blood-air barrier; details: inhalation exposure at 35 mg per cubic meter
[2] = rats

| Molecule | lethal dose / survival (rats; i.a., dose 15-20 mg/kg) | lethal dose / survival (rats; i.v., dose 15-20 mg/kg) | lethal dose / survival (rats; p.o., dose 250 mg/kg) | lethal dose / survival (rats; p.o., dose 1250 mg/kg) | pKa | lethal dose / survival (rats; i.a., dose 100-150 mg/kg) | lethal dose / survival (rats; i.v., dose 100-150 mg/kg) | Clara cells and CC16 protein concentration [1] | changes in lung biomarker levels [1] | inflammatory response and blood-air barrier [1] | influx of proteins from blood vessels and alveolar space [1] | concentrations in the lungs and kidneys compared to levels observed in the liver and tissue [2] |
| --- | --- | --- | --- | --- | --- | --- | --- | --- | --- | --- | --- | --- |
| N=C(NCCCCCCNC(=N)NC(=N)Nc1ccc(Cl)cc1)NC(=N)Nc1ccc(Cl)cc1.O=C(O)[C@H](O)[C@@H](O)[C@H](O)[C@H](O)CO.O=C(O)[C@H](O)[C@@H](O)[C@H](O)[C@H](O)CO [Chlorhexidine gluconate] | L | L | S | S and (poor) | – | – | – | – | – | – | – | – |
| NS(=O)(=O)O [Sulfamic Acid] | – | – | – | – | 1 | – | – | – | – | – | – | – |
| Alkyldiaminoethylglycine | S | S | S | L | – | L | L | – | – | – | – | – |
| Benzalkonium Chloride | L | L | S | L | – | – | – | Damage to Clara cells and a reduced concentration in CC16 protein | significant changes | strong inflammatory response and damage to the blood-air barrier | massive influx of proteins | several times higher |
| Soidum dodecylbenzensulfonate | S | S | S | L | – | L | L | – | – | – | – | – |
